Literature values as cited in patent publication US11452288B1, “Innocuous sterilant using hemocyanin and functionalized fullerenes with broad-spectrum intracellular and interstitial microbiocidal and radical scavenging effects for packaged matter, biologics and organics including liquids, gases, tissue, organs, cells, and limbs with copper mediated oxygenation …” (priority 2022, dated 2022).

Assays:
[1] = system: fungal donor rim cultures; conditions: additive to Optisol-GS, compared with Optisol-GS alone
endothelial = conditions: optimal antifungal concentrations in the nutrient media

Compound: C[C@@H](c1ncncc1F)[C@](O)(Cn1cncn1)c1ccc(F)cc1F [voriconazole]
- rate of positive fungal donor rim cultures [1]: significant reduction

Compound: C[C@@H]1[C@H](O)[C@@H](C)/C=C/C=C/C=C/C=C/C=C/C=C/C=C/[C@H](O[C@@H]2O[C@H](C)[C@@H](O)[C@H](N)[C@@H]2O)C[C@@H]2O[C@](O)(C[C@@H](O)C[C@@H](O)[C@H](O)CC[C@@H](O)C[C@@H](O)CC(=O)O[C@H]1C)C[C@H](O)[C@H]2C(=O)O [Amphotericin B]
- endothelial toxicity (endothelial): significant endothelial toxicity
